# Measured values: article PMC3511524, “Ant Trail Pheromone Biosynthesis Is Triggered by a Neuropeptide Hormone” (PLoS ONE, 2012)
# Read-outs that look alike come from different tables or passages of the source. Ends that are not written are not given here.
# Target: T1, SolinPBAN-R (Solenopsis invicta, UniProt L0APC6)
# T1 sequence (L0APC6 1-605): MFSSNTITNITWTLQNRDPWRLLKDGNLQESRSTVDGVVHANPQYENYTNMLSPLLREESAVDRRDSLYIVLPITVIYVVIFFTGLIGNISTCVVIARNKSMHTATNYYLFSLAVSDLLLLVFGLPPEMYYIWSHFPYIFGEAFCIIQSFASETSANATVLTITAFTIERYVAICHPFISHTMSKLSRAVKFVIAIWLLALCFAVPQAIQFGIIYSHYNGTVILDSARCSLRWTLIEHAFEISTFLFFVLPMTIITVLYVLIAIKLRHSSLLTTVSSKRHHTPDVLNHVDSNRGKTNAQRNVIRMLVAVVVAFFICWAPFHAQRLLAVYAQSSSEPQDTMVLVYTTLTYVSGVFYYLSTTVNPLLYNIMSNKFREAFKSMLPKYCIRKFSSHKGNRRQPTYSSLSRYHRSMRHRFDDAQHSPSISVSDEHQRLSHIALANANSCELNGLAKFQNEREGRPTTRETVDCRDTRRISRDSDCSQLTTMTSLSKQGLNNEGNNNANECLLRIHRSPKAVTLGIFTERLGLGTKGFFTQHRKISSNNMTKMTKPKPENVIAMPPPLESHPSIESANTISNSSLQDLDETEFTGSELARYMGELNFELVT
# Experiment: SolinPBAN-R/peptide binding assay (calcium-based Fluo-4AM fluorescence in Sf9 cells expressing SolinPBAN-R)
# Format: cell-based
# Conditions: for EC50: SolinPBAN-R expressed in Sf9 cells, Fluo-4AM fluorescence relative to 1 µM ionomycin maximum, read-out: EC50 (half-maximal effective concentration), binding activity to SolinPBAN-R
# Description: Poly(A) RNA was isolated from whole bodies and heads of S. invicta workers and mature female alates for synthesis cDNA as described previously. Synthesized cDNA was amplified with a degenerate primer set: 5′-[…]-3′ ([…]) and 5′-[…]-3′ ([…]) mostly conserved in TM2 and TM7 domains from insect PBAN-Rs [25]–[27]. PCR was performed for 35 cycles at 95°C for 30 s, 50°C for 30 s, and 72°C for 1 min. The PCR product was directly sequenced by Interdisciplinary Center for Biotechnology Research (ICBR, University of Florida), and then the sequence result was used to design further gene-specific primers to find 5′- and 3′- ends of the fire ant PBAN-R cDNA. 5′-RACE (GeneRacer kit, Invitrogen) was performed using primers 5′-[…]-3′ (from nucleotide 1106) and 5′-[…]-3′ (from nucleotide 588) by the 5′-RACE kit (Invitrogen). 3′-RACE was performed using primers 5′-[…] NTTYCA-3′ (from nucleotide 1199), 5′-[…] […]-3′ (from nucleotide 1336) and 5′-[…]-3′ (from nucleotide 1392). Then PCR products were inserted into a subcloning vector (TOPO-TA, Invitrogen) and confirmed the nucleotides by DNA sequence. Sequences of the receptor DNA and corresponding amino acids were analyzed by Genetyx software ver. 10 (Genetyx Corporation) and PredictProtein software. The ORF of PBAN-R cDNA was amplified using the sense primer of 5′- […] […]-3′ (from nucleotide 255 including the NotI site) and 5′-[…] […]-3′ (from nucleotide 2122 including the XbaI site). The PCR product was ligated into a pIBV5His vector (Invitrogen) for expression in Sf9 cells as described previously.
# All peptides used in this study were synthesized or purchased from Sigma Genosys or Peninsula Laboratories. The preparation of cells, peptides, and Fluo-4AM with hymenopteran saline followed a previously described method. Cell fluorescence intensity in a 96-well cell-culture was measured using a plate reader (BMG's NovoStar) equipped with filters (excitation: 485 nm and emission: 520 nm), and one pipetter and two injectors. Fluorescence measurements from each well were taken every 10s. After 30s PBAN or FXPRL peptide (10 µL) was added by pipetter and fluorescent changes were measured for up to 3 min. Then, 1 µM ionomycin (5 µL) was added into the cells to obtain a maximum fluorescence reading. The effect of ligand-exposure was expressed relative to the maximum value obtained with ionomycin. Data were analyzed using Microsoft EXCEL as described previously and measured EC50 values of ligands were determined using GraphPad Prism 4.03 software.
# The PBAN/pyrokinin family of peptides and their receptors are currently classified as PK1 or PK2. Diapause Hormone (DH) peptides and their receptors are classified as type PK1. PBAN and other PBAN family peptides, and their receptors are classified as type PK2 [12]. To verify our SolinPBAN-R assignment we determined binding affinities for a number of PK1 ( = DH type) and PK2 ( = PBAN type) neuropeptides to SolinPBAN-R (Table 1). We expressed SolinPBAN-R in Spodoptera frugiperda 9 (Sf9) insect cells, which enabled binding specificity studies by measurement of calcium-based fluorescence intensity (Fig. 3A and Table 1). […] The SolinPBAN/pyrokinin gene is expressed in all life stages in fire ant, from egg to adult; however, the disposition of the four SolinPBAN/pyrokinin peptides in each life stage, as well as the possibility of additional receptors is unknown and currently under investigation.
Substance,"EC50 value times less than HelzePBAN (18 nM vs. 56 nM, Sf9 cells expressing SolinPBAN-R) [times]",EC50 (N≥4) [nM],EC50 [nM]
GSGEDLSYGDAYEVDEDDHPLFVPRL-NH2 [SolinPBAN],3,18,
LSDDMPATPADQEMYRQDPEQIDSRTKYFSPRL-NH2 [HelzePBAN],,56,
NDVKDGAASGAHSDRLGLWFGPRL-NH2 [HelzePGN24 (DH)],,,> 1000
SVPFKPRL-NH2 [DromePK2],,163,
TGPSASSGLWFGPRL-NH2 [DromePK1],,,> 1000
TSQDIASGMWFGPRL-NH2 [SolinDH],,125,
